Structures are written as SMILES.

The test has as its target SMYD3 (Homo sapiens (Human), UniProt Q9H7B4). Put plainly: SMYD3 biochemical assay (SPA, 3H-SAM methylation of MEKK2 protein substrate). Particulars: read-out: SMYD3 Biochem IC50 (μM)*. In short, it runs like this:
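Methylation of N-terminally GST-tagged MEKK2 by untagged full-length human SMYD3, using 3H-SAM, in pH 8.0 Tris buffer with TCEP, BSG and Tween 20; enzyme and compound sat 30 min at room temperature before substrate addition. Stopped with 100 uM (final) cold SAM; incorporation read by scintillation proximity as dpm/cpm.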
On to `CC[C@H]1CN(C(=O)C2CCC(N)CC2)CC[C@@H]1NC(=O)c1cc(C2CC2)on1` (stereo partly drawn) [compound 93, N-((3S,4S)-1-(4-aminocyclohexane-1-carbonyl)-3-ethylpiperidin-4-yl)-5-cyclopropylisoxazole-3-carboxamide], for which the half-maximal inhibitory concentration (IC50) was found to be 1.61 µM.

Take `CC[C@H]1CC(NC(=O)c2cc(C3CC3)on2)CCN1C(=O)[C@H]1CC[C@H](N)CC1` (stereo partly drawn) [compound 94, N-((2S)-1-((1r,4S)-4-aminocyclohexane-1-carbonyl)-2-ethylpiperidin-4-yl)-5-cyclopropylisoxazole-3-carboxamide]: the IC50 amounted to 2.38 µM. Turning to `C[C@@H]1CC(NC(=O)c2cc(C3CC3)on2)CCN1C(=O)[C@@H]1CC[C@@H](N)C1` (stereo partly drawn) [compound 95, N-((2R)-1-((1R,3R)-3-aminocyclopentane-1-carbonyl)-2-methylpiperidin-4-yl)-5-cyclopropylisoxazole-3-carboxamide], the concentration for half-maximal inhibition (IC50) came to 0.532 µM. Turning to `C[C@@H]1CC(NC(=O)c2cc(C3CC3)on2)CCN1C(=O)[C@@H]1CC[C@H](N)C1` (stereo partly drawn) [compound 96, N-((2R)-1-((1R,3S)-3-aminocyclopentane-1-carbonyl)-2-methylpiperidin-4-yl)-5-cyclopropylisoxazole-3-carboxamide], the half-inhibitory concentration (IC50) stood at 1.9 µM. The figure for `C[C@@H]1CC(NC(=O)c2cc(C3CC3)on2)CCN1C(=O)[C@H]1C[C@H](N)C1` (stereo partly drawn) [compound 97, N-((2R)-1-((1r,3R)-3-aminocyclobutane-1-carbonyl)-2-methylpiperidin-4-yl)-5-cyclopropylisoxazole-3-carboxamide] is 0.779 µM; for `CCCC1CC(NC(=O)c2cc(C3CC3)on2)CCN1C(=O)[C@H]1CC[C@H](N)CC1` (stereo partly shown) [compound 98, N-(1-((1r,4r)-4-aminocyclohexane-1-carbonyl)-2-propylpiperidin-4-yl)-5-cyclopropylisoxazole-3-carboxamide] it is 0.655 µM; for `N[C@H]1CC[C@H](C(=O)N2CCC(NC(=O)c3cc(C4CC4)on3)CC23CCC3)CC1` (stereo partly shown) [compound 100, N-(5-((1r,4r)-4-aminocyclohexane-1-carbonyl)-5-azaspiro[3.5]nonan-8-yl)-5-cyclopropylisoxazole-3-carboxamide] it is 2.2 µM. Under `N[C@H]1CC[C@H](C(=O)N2[C@@H]3CC[C@H]2C[C@H](NC(=O)c2cc(C4CC4)on2)C3)CC1` [compound 101, N-((1R,3S,5S)-8-((1r,4R)-4-aminocyclohexane-1-carbonyl)-8-azabicyclo[3.2.1]octan-3-yl)-5-cyclopropylisoxazole-3-carboxamide] stands above 10 µM. As to `C[C@H]1CC(NC(=O)c2cc(C3CC3)on2)CCN1C(=O)CC(C)(C)CN` (stereo partly drawn) [compound 103, N-((2S)-1-(4-amino-3,3-dimethylbutanoyl)-2-methylpiperidin-4-yl)-5-cyclopropylisoxazole-3-carboxamide], the half-inhibitory concentration (IC50) came out at 1.45 µM. The figure for `C[C@@H]1CC(NC(=O)c2cc(C3CC3)on2)CCN1C(=O)CC(C)(C)CN` (stereo partly drawn) [compound 104, N-((2R)-1-(4-amino-3,3-dimethylbutanoyl)-2-methylpiperidin-4-yl)-5-cyclopropylisoxazole-3-carboxamide] is 0.566 µM. The figure for `C[C@H]1CC(NC(=O)c2cc(C3CC3)on2)CCN1C(=O)[C@H]1CC[C@H](N(C)C)CC1` (stereo partly drawn) [compound 105, 5-cyclopropyl-N-((2S)-1-((1r,4S)-4-(dimethylamino)cyclohexane-1-carbonyl)-2-methylpiperidin-4-yl)isoxazole-3-carboxamide] is 20 µM; for `C[C@H]1CC(NC(=O)c2cc(C3CC3)on2)CCN1C(=O)[C@H]1CCC[C@H](N)C1` (stereo partly drawn) [compound 106, N-((2S)-1-((1S,3S)-3-aminocyclohexane-1-carbonyl)-2-methylpiperidin-4-yl)-5-cyclopropylisoxazole-3-carboxamide] it is 3.52 µM.

On to `C[C@@H]1CC(NC(=O)c2cc(C3CC3)on2)CCN1C(=O)C1CCCNC1` (stereo partly drawn) [compound 107, 5-cyclopropyl-N-((2R)-2-methyl-1-(piperidine-3-carbonyl)piperidin-4-yl)isoxazole-3-carboxamide], for which the half-inhibitory concentration (IC50) worked out at 2.52 µM.

Turning to `N[C@H]1CC[C@H](C(=O)N2CCC(NC(=O)c3cc(C4CC4)on3)CC2Cc2ccccc2)CC1` (stereo partly shown) [compound 108, N-(1-((1r,4r)-4-aminocyclohexane-1-carbonyl)-2-benzylpiperidin-4-yl)-5-cyclopropylisoxazole-3-carboxamide], the IC50 turned out to be 1.42 µM.

Regarding `NC[C@H](Cc1ccc(O)c(C(F)(F)F)c1)C(=O)N1CCC(NC(=O)c2cc(C3CC3)on2)CC1` [compound 111, (S)-N-(1-(3-amino-2-(4-hydroxy-3-(trifluoromethyl)benzyl)propanoyl)piperidin-4-yl)-5-cyclopropylisoxazole-3-carboxamide], the IC50 turned out to be 2.47 µM. The figure for `CC(C)c1cc(C[C@H](CN)C(=O)N2CCC(NC(=O)c3cc(C4CC4)on3)CC2)ccc1O` [compound 112, (R)-N-(1-(3-amino-2-(4-hydroxy-3-isopropylbenzyl)propanoyl)piperidin-4-yl)-5-cyclopropylisoxazole-3-carboxamide] is 1.09 µM; for `C[C@@H]1CC(NC(=O)c2cc(C3CC3)on2)CCN1C[C@H]1CC[C@H](N)CC1` (stereo partly drawn) [compound 113, N-((2R)-1-(((1r,4R)-4-aminocyclohexyl)methyl)-2-methylpiperidin-4-yl)-5-cyclopropylisoxazole-3-carboxamide] it is 4.59 µM. In the case of `CC1(C)CC(NC(=O)c2cc(C3CC3)on2)CCN1C(=O)[C@H]1CC[C@H](N)CC1` (stereo partly shown) [compound 114, N-(1-((1r,4r)-4-aminocyclohexane-1-carbonyl)-2,2-dimethylpiperidin-4-yl)-5-cyclopropylisoxazole-3-carboxamide], the half-inhibitory concentration (IC50) stood at 1.31 µM. Under `C[C@H]1CC(NC(=O)c2cc(C3CC3)on2)CCN1C(=O)CC1(C)CCNCC1` (stereo partly drawn) [compound 115, 5-cyclopropyl-N-((2S)-2-methyl-1-(2-(4-methylpiperidin-4-yl)acetyl)piperidin-4-yl)isoxazole-3-carboxamide] stands 0.472 µM; under `C[C@@H]1CC(NC(=O)c2cc(C3CC3)on2)CCN1C(=O)CC1(C)CCNCC1` (stereo partly drawn) [compound 116, 5-cyclopropyl-N-((2R)-2-methyl-1-(2-(4-methylpiperidin-4-yl)acetyl)piperidin-4-yl)isoxazole-3-carboxamide], 2.91 µM. The figure for `C[C@H]1CC(NC(=O)c2cc(C3CC3)on2)CCN1C(=O)[C@H]1CCC[C@@H](N)C1` (stereo partly drawn) [compound 117, N-((2S)-1-((1S,3R)-3-aminocyclohexane-1-carbonyl)-2-methylpiperidin-4-yl)-5-cyclopropylisoxazole-3-carboxamide] is 5.6 µM; for `CCOC(=O)C1CN(C(=O)CC2CCNCC2)CCC1NC(=O)c1cc(C2CC2)on1` (stereo not shown) [compound 119, ethyl 4-(5-cyclopropylisoxazole-3-carboxamido)-1-(2-(piperidin-4-yl)acetyl)piperidine-3-carboxylate] it is 2.99 µM. The figure for `NC[C@@H](Cc1ccc(O)c(C(F)(F)F)c1)C(=O)N1CCC(NC(=O)c2cc(C3CC3)on2)CC1` [compound 120, (R)-N-(1-(3-amino-2-(4-hydroxy-3-(trifluoromethyl)benzyl)propanoyl)piperidin-4-yl)-5-cyclopropylisoxazole-3-carboxamide] is 0.0816 µM; for `C[C@@H]1CC(NC(=O)c2cc(C3CC3)on2)CCN1C(=O)N1CCC(N)CC1` (stereo partly drawn) [compound 122, N-((2R)-1-(4-aminopiperidine-1-carbonyl)-2-methylpiperidin-4-yl)-5-cyclopropylisoxazole-3-carboxamide] it is 0.851 µM; for `N[C@H]1CC[C@H](C(=O)N2CC3CC2CC3NC(=O)c2cc(C3CC3)on2)CC1` (stereo partly shown) [compound 123, N-(2-((1r,4r)-4-aminocyclohexane-1-carbonyl)-2-azabicyclo[2.2.1]heptan-5-yl)-5-cyclopropylisoxazole-3-carboxamide] it is 1.17 µM. In the case of `O=C(NC1CC2CCCC(C1)N2C(=O)CC1CCNCC1)c1cc(C2CC2)on1` (stereo not shown) [compound 125, 5-cyclopropyl-N-(9-(2-(piperidin-4-yl)acetyl)-9-azabicyclo[3.3.1]nonan-3-yl)isoxazole-3-carboxamide], the IC50 was determined as 7.76 µM. The figure for `O=C(N[C@@H]1C[C@H]2CC[C@@H](C1)N2C(=O)CC1CCNCC1)c1cc(C2CC2)on1` [compound 126, 5-cyclopropyl-N-((1R,3s,5S)-8-(2-(piperidin-4-yl)acetyl)-8-azabicyclo[3.2.1]octan-3-yl)isoxazole-3-carboxamide] is 9.86 µM; for `O=C(N[C@H]1C[C@H]2CC[C@@H](C1)N2C(=O)CC1CCNCC1)c1cc(C2CC2)on1` [compound 127, 5-cyclopropyl-N-((1R,3r,5S)-8-(2-(piperidin-4-yl)acetyl)-8-azabicyclo[3.2.1]octan-3-yl)isoxazole-3-carboxamide] it is 1.28 µM. The figure for `C[C@H]1CC(NC(=O)c2cc(C3CC3)on2)CCN1C(=O)CC1CC2CCC(C1)N2` (stereo partly drawn) [compound 128, N-((2S)-1-(2-(8-azabicyclo[3.2.1]octan-3-yl)acetyl)-2-methylpiperidin-4-yl)-5-cyclopropylisoxazole-3-carboxamide] is 0.844 µM; for `C[C@@H]1CC(NC(=O)c2cc(C3CC3)on2)CCN1C(=O)CC1CC2CCC(C1)N2` (stereo partly drawn) [compound 129, N-((2R)-1-(2-(8-azabicyclo[3.2.1]octan-3-yl)acetyl)-2-methylpiperidin-4-yl)-5-cyclopropylisoxazole-3-carboxamide] it is 0.595 µM. Under `C[C@H]1CC(NC(=O)c2cc(C3CC3)on2)CCN1C(=O)C1CC2(CC(N)C2)C1` (stereo partly drawn) [compound 130, N-((2S)-1-(6-aminospiro[3.3]heptane-2-carbonyl)-2-methylpiperidin-4-yl)-5-cyclopropylisoxazole-3-carboxamide] stands 1.3 µM.

As a reminder, the IC50 is the point on the concentration scale where inhibition reaches its midpoint.
